Source: ChEMBL document CHEMBL4715784, “Screening and biological evaluation of a novel STAT3 signaling pathway inhibitor against cancer” (Bioorg Med Chem Lett, 2016)
Calls of active or inactive are those of the source. No cut-off for these calls is given here.

Assays:
MDA-MB-468 [1] = test: Effect on STAT3 expression in human MDA-MB-468 cells at 1 to 30 uM incubated for 24 hrs by Western blot analysis; type: functional, cell-based; settings: dose 1-30 µM
[2] = Binding affinity to STAT3 K591A/S611G mutant (unknown origin) expressed in Escherichia coli by CM5 sensor chip immobilization based SPR assay; design: species or system Homo sapiens
MDA-MB-468 [3] = test: Antimigratory activity against human MDA-MB-468 cells assessed as reduction in cell migration incubated for 24 hrs by transwell study based analysis; type: functional; settings: dose 10-30 µM
[4] = Binding affinity to STAT3 K591A mutant (unknown origin) expressed in Escherichia coli by CM5 sensor chip immobilization based SPR assay; design: species or system Homo sapiens
[5] = target: T1, Signal transducer and activator of transcription 3 (Homo sapiens, UniProt P40763); test: Inhibition of STAT3 in human MDA-MB-468 cells assessed as reduction in Bcl-XL expression at 1 to 30 uM incubated for 24 hrs by Western blot analysis; type: cell-based; settings: dose 1-30 µM
T1 sequence (P40763 whole entry): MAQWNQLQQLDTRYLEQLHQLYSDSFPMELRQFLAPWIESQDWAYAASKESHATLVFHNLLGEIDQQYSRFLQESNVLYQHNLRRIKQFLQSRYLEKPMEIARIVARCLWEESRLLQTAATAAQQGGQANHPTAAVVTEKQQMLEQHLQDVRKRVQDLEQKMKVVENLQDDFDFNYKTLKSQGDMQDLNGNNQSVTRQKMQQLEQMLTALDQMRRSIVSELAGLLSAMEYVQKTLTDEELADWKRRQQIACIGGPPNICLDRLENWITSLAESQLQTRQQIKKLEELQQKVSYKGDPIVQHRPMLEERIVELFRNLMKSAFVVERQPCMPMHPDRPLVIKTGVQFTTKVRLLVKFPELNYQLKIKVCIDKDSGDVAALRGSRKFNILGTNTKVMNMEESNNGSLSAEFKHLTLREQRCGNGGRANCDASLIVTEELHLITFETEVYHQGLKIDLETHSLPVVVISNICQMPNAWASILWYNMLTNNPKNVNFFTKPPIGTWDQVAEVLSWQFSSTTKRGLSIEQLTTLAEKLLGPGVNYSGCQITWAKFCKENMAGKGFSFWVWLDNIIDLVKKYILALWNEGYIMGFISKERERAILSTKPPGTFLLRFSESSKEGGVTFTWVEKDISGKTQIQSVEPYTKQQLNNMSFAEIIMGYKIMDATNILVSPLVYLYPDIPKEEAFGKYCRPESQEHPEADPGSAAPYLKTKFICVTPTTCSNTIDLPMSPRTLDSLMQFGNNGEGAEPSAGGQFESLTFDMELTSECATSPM

[6] = target: T1, Signal transducer and activator of transcription 3; test: Binding affinity to STAT3 (unknown origin) expressed in Escherichia coli by CM5 sensor chip immobilization based SPR assay
[7] = target: T1, Signal transducer and activator of transcription 3; test: Inhibition of STAT3 in human MDA-MB-468 cells assessed as reduction in STAT3 Y705 residue phosphorylation incubated for 24 hrs by Western blot analysis; type: cell-based; settings: dose 1-30 µM
[8] = target: T2, Signal transducer and activator of transcription 5A (Homo sapiens) (UniProt P42229); test: Inhibition of STAT5 in human MDA-MB-468 cells assessed as reduction in STAT5 phosphorylation at 1 to 30 uM incubated for 24 hrs by Western blot analysis; type: cell-based; settings: dose 1-30 µM
T2 sequence (whole entry): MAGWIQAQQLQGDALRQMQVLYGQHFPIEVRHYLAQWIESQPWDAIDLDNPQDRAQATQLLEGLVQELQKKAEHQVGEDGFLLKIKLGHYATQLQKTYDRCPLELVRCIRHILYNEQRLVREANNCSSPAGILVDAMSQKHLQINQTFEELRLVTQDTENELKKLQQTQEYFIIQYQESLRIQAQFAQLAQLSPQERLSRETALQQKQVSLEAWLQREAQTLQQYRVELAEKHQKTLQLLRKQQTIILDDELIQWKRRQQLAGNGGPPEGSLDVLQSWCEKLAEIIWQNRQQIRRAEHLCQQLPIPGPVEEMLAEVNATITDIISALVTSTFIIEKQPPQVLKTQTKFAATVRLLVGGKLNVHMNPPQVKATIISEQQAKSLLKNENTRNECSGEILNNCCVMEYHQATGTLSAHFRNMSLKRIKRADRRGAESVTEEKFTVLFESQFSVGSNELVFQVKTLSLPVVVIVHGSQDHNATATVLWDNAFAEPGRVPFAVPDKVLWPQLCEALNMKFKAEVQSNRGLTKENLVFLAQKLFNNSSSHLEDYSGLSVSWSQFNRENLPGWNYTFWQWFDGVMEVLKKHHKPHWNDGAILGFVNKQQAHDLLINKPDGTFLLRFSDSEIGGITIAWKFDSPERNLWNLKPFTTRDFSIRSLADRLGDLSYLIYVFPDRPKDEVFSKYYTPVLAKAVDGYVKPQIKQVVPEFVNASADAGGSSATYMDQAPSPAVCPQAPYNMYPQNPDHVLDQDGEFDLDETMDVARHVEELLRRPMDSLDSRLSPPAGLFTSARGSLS

MDA-MB-468 [9] = test: Antiproliferative activity against human MDA-MB-468 cells harboring active STAT3 assessed as reduction in cell growth incubated for 24 hrs by CCK8 assay; type: functional, cell-based; settings: MDA-MB-468, 24 h
[10] = Binding affinity to STAT3 C712G mutant (unknown origin) expressed in Escherichia coli by CM5 sensor chip immobilization based SPR assay; design: species or system Homo sapiens
Homo sapiens = species: Homo sapiens; test: Selectivity ratio of Kd for STAT3 I643S/Q635G mutant (unknown origin) expressed in Escherichia coli to Kd for wild type STAT3 (unknown origin) expressed in Escherichia coli by CM5 sensor chip immobilization based SPR assay
[11] = Binding affinity to STAT3 I643S/Q635G mutant (unknown origin) expressed in Escherichia coli by CM5 sensor chip immobilization based SPR assay; design: species or system Homo sapiens
[12] = target: T1, Signal transducer and activator of transcription 3; test: Inhibition of STAT3-dependent transcriptional activity in human HeLa cells transfected with p-Luc-TKS3 assessed as reduction in luciferase expression incubated for 24 hrs by dual luciferase reporter gene assay; type: cell-based
[13] = target: T3, Signal transducer and activator of transcription 1-alpha/beta (Homo sapiens) (UniProt P42224); test: Inhibition of STAT1 in human MDA-MB-468 cells assessed as reduction in STAT1 phosphorylation at 1 to 30 uM incubated for 24 hrs by Western blot analysis; type: cell-based; settings: dose 1-30 µM
T3 sequence (whole entry): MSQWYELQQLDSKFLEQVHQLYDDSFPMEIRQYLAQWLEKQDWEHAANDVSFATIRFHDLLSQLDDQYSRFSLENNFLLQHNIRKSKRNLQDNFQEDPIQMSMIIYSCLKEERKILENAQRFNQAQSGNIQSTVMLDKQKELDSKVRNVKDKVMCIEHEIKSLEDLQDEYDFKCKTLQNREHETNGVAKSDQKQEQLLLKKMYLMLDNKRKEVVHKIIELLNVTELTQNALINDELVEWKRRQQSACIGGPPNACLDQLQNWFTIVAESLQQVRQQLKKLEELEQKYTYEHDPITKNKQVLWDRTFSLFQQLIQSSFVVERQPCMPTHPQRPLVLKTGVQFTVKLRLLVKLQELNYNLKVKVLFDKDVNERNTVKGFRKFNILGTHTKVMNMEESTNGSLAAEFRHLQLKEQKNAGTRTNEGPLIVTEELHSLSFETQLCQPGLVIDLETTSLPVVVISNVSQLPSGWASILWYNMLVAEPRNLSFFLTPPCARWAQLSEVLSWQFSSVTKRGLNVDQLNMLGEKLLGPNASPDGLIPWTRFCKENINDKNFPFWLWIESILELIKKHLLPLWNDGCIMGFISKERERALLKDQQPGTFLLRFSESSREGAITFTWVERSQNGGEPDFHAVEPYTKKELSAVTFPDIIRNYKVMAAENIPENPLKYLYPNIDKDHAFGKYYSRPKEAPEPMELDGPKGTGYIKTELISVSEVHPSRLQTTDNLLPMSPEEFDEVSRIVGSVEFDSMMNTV

DU-145 = test: Antiproliferative activity against human DU-145 cells harboring active STAT3 assessed as reduction in cell growth incubated for 24 hrs by CCK8 assay; type: functional, cell-based; settings: DU-145, 24 h
[14] = Binding affinity to STAT3 R595G mutant (unknown origin) expressed in Escherichia coli by CM5 sensor chip immobilization based SPR assay; design: species or system Homo sapiens
MDA-MB-231 = test: Antiproliferative activity against human MDA-MB-231 cells harboring active STAT3 assessed as reduction in cell growth incubated for 24 hrs by CCK8 assay; type: functional, cell-based; settings: MDA-MB-231, 24 h
[15] = target: T1, Signal transducer and activator of transcription 3; test: Displacement of fluorescein-labeled pYLPQTV-NH2 from STAT3 SH2 domain (unknown origin) by fluorescence polarization assay
MCF7 = test: Antiproliferative activity against human MCF7 cells assessed as reduction in cell growth incubated for 24 hrs by CCK8 assay; type: functional, cell-based; settings: MCF7, 24 h

Question: For `O=C1c2ccccc2C(=O)c2cc(S(=O)(=O)Nc3ccc(O)cc3)ccc21`, which Activity (MDA-MB-468 [1]) is on record?
Answer: inactive

Question: And the Kd [2]?
Answer: 4.8 µM

Question: What about the Activity (MDA-MB-468 [3]) of the same compound?
Answer: Dose-dependent effect

Question: What about the Kd [4] of the same compound?
Answer: 3.84 µM

Question: What about the inhibition [5] of the same compound?
Answer: Active

Question: And the Activity [6]?
Answer: Dose-dependent effect

Question: And the Kd [6]?
Answer: 4.59 µM

Question: And the inhibition [7]?
Answer: Dose-dependent effect

Question: And the inhibition [8]?
Answer: Active

Question: What about the IC50 (MDA-MB-468 [9]) of the same compound?
Answer: 5.1 µM

Question: And the Kd [10]?
Answer: 18.5 µM

Question: And the Selectivity ratio (Homo sapiens)?
Answer: 4

Question: What about the Kd [11] of the same compound?
Answer: 22.7 µM

Question: What about the IC50 [12] of the same compound?
Answer: 12.5 µM

Question: What about the inhibition [12] of the same compound?
Answer: Dose-dependent effect

Question: What about the inhibition [13] of the same compound?
Answer: Active

Question: What about the IC50 (DU-145) of the same compound?
Answer: 63.8 µM

Question: And the Kd [14]?
Answer: 6.53 µM

Question: What about the IC50 (MDA-MB-231) of the same compound?
Answer: 13.8 µM

Question: What about the inhibition [15] of the same compound?
Answer: Active

Question: And the IC50 (MCF7)?
Answer: 134 µM
